Molecular target: HIV protease (Human immunodeficiency virus type 1 group M subtype B, UniProt P04585)
Experiment: biochemical
Excerpt: Enzymatic Assay for Determining the Inhibition Constant (Ki) of Synthetic Compounds Targeting the HIV Protease
This is a fluorometric assay based on the cleavage by protease of a substrate carrying a donor group (EDANS) and an acceptor group (DABCYL) on each side of the cleavage site, interacting together through fluorescence resonance energy transfer (FRET) as described by Matayoshi et al. (Science 247:954-954, 1990).
After calculation of Vo and Vi, the inhibition constant (Ki) of the compound is determined using the equation of Henderson: [formula]
where Vo=the enzyme's initial velocity
Vi=the enzyme velocity in the presence of the inhibitory compound,
[I]=inhibitor concentration, [S]=substrate concentration,
Km=Michaelis-Menten constant and Kiapp=apparent Ki
Graphs are traced and the Ki determined using GraphPad Prism software v.

**Q.** With `Cc1ncccc1C(=O)N[C@H](C(=O)NCCCC[C@@H](CO)N(CC(C)C)S(=O)(=O)c1ccc(N)cc1)C(c1ccccc1)c1ccccc1` [Example 111, (1S,5S)-N-(1-{5-[(4-Amino-benzenesulfonyl)-isobutyl-amino]-6-hydroxy-hexylcarbamoyl}-2,2-diphenyl-ethyl)-2-methyl-nicotinamide] as the compound, how does the Ki read?
**A.** < 3.8 nM

**Q.** How did the Ki turn out when `CC(C)CN([C@H](CO)CCCNC(=O)[C@@H](N)Cc1cccc2ccccc12)S(=O)(=O)c1ccc(N)cc1` [Example 8, (2S,4S)-2-Amino-N-{4-[(4-amino-benzenesulfonyl)-isobutyl-amino]-5-hydroxy-pentyl}-3-naphthalen-1-yl-propionamide] was run?
**A.** 1.6 nM

**Q.** With `CC(C)CN([C@H](CO)CCCCNC(=O)[C@@H](NC(=O)c1ccccn1)C(c1ccccc1)c1ccccc1)S(=O)(=O)c1ccc(N)cc1` [Example 96, (1S,5S)-Pyridine-2-carboxylic Acid (1-{5-[(4-Amino-benzenesulfonyl)-isobutyl-amino]-6-hydroxy-hexylcarbamoyl}-2,2-diphenyl-ethyl)-amide] as the compound, how does the Ki read?
**A.** < 3.8 nM

**Q.** With `CCCCN[C@@H](Cc1ccc2ccccc2c1)C(=O)NCCCC[C@@H](CO)N(CC(C)C)S(=O)(=O)c1ccc(N)cc1` [Example 68, (2S,5S)-N-{5-[(4-Amino-benzenesulfonyl)-isobutyl-amino]-6-hydroxy-hexyl}-2-butylamino-3-naphthalen-2-yl-propionamide] as the compound, how does the Ki read?
**A.** 5.8 nM

**Q.** `CCCCN[C@@H](Cc1cccc2ccccc12)C(=O)NCCC[C@@H](CO)N(CC(C)C)S(=O)(=O)c1ccc(N)cc1` [Example 20, (2S,4S)-N-{4-[(4-Amino-benzenesulfonyl)-isobutyl-amino]-5-hydroxy-pentyl}-2-butylamino-3-naphthalen-1-yl-propionamide] was tested. Which Ki did it give?
**A.** 4.4 nM

**Q.** How did the Ki turn out when `COC(=O)N[C@@H](Cc1cccc2ccccc12)C(=O)NCCCC[C@@H](CO)N(CC(C)C)S(=O)(=O)c1ccc(N)cc1` [Example 28, (1S,5S)-(1-{5-[(4-Amino-benzenesulfonyl)-isobutyl-amino]-6-hydroxy-hexylcarbamoyl}-2-naphthalen-1-yl-ethyl)-carbamic Acid Methyl Ester] was run?
**A.** 1.2 nM

**Q.** `CC(C)CN([C@H](CO)CCCNC(=O)[C@@H](N)Cc1ccccc1-c1ccccc1)S(=O)(=O)c1ccc(N)cc1` [Example 14, (2S,4S)-2-Amino-N-{4-[(4-amino-benzenesulfonyl)-isobutyl-amino]-5-hydroxy-pentyl}-3-biphenyl-2-yl-propionamide] was tested. Which Ki did it give?
**A.** 7.1 nM

**Q.** Which Ki does the source give for `COC(=O)N[C@@H](Cc1ccccc1-c1cccc(F)c1)C(=O)NCCCC[C@@H](CO)N(CC(C)C)S(=O)(=O)c1ccc(N)c(Cl)c1` [Example 57, (1S,5S)-[1-{5-[(4-Amino-3-chloro-benzenesulfonyl)-isobutyl-amino]-6-hydroxy-hexylcarbamoyl}-2-(3′-fluoro-biphenyl-2-yl)-ethyl]-carbamic Acid Methyl Ester] here?
**A.** 1.7 nM

**Q.** `COc1ccc(CC(=O)N[C@@H](Cc2cccc3ccccc23)C(=O)NCCC[C@@H](CO)N(CC(C)C)S(=O)(=O)c2ccc(N)cc2)cc1` [Example 5, (2S,4S)-N-{4-[(4-Amino-benzenesulfonyl)-isobutyl-amino]-5-hydroxy-pentyl}-2-[2-(4-methoxy-phenyl)-acetylamino]-3-naphthalen-1-yl-propionamide] was tested. Which Ki did it give?
**A.** 11 nM

**Q.** How did the Ki turn out when `COC(=O)N[C@@H](Cc1ccc2ccccc2c1)C(=O)NCCCC[C@@H](CO)N(CC(C)C)S(=O)(=O)c1ccc(F)c(N)c1` [Example 82, (1S,5S)-(1-{5-[(3-Amino-4-fluoro-benzenesulfonyl)-isobutyl-amino]-6-hydroxy-hexylcarbamoyl}-2-naphthalen-2-yl-ethyl)-carbamic Acid Methyl Ester] was run?
**A.** < 3.8 nM

**Q.** `CC(C)CN([C@H](CO)CCCCNC(=O)[C@@H](NC(=O)c1ccc(N)nc1)C(c1ccccc1)c1ccccc1)S(=O)(=O)c1ccc(N)cc1` [Example 109, (1S,5S)-6-Amino-N-(1-{5-[(4-amino-benzenesulfonyl)-isobutyl-amino]-6-hydroxy-hexylcarbamoyl}-2,2-diphenyl-ethyl)-nicotinamide] was tested. Which Ki did it give?
**A.** < 3.8 nM

**Q.** How did the Ki turn out when `CC(C)CN([C@H](CO)CCCNC(=O)[C@H](Cc1cccc2ccccc12)NC(=O)C1CCCCC1)S(=O)(=O)c1ccc(N)cc1` [Example 13, (1S,4S)-Cyclohexanecarboxylic Acid (1-{4-[(4-Amino-benzenesulfonyl)-isobutyl-amino]-5-hydroxy-pentylcarbamoyl}-2-naphthalen-1-yl-ethyl)-amide] was run?
**A.** 2.3 nM

**Q.** How did the Ki turn out when `COCC(=O)N[C@@H](Cc1cccc2ccccc12)C(=O)NCCC[C@@H](CO)N(CC(C)C)S(=O)(=O)c1ccc(N)cc1` [Example 19, (2S,4S)-N-{4-[(4-Amino-benzenesulfonyl)-isobutyl-amino]-5-hydroxy-pentyl}-2-(2-methoxy-acetylamino)-3-naphthalen-1-yl-propionamide] was run?
**A.** 2.6 nM

**Q.** With `CC(=O)OCCN[C@@H](Cc1cccc2ccccc12)C(=O)NCCC[C@@H](CO)N(CC(C)C)S(=O)(=O)c1ccc(N)cc1` [Example 21, (1S,4S)-Acetic Acid 2-(1-{4-[(4-Amino-benzenesulfonyl)-isobutyl-amino]-5-hydroxy-pentylcarbamoyl}-2-naphthalen-1-yl-ethylamino)-ethyl Ester] as the compound, how does the Ki read?
**A.** 3.9 nM

**Q.** Which Ki does the source give for `CC(C)CN([C@H](CO)CCCCNC(=O)[C@H](Cc1ccc2ccccc2c1)NC(=O)OC(C)(C)C)S(=O)(=O)c1ccc(N)c(F)c1` [Example 91, (1S,5S)-(1-{5-[(4-Amino-3-fluoro-benzenesulfonyl)-isobutyl-amino]-6-hydroxy-hexylcarbamoyl}-2-naphthalen-2-yl-ethyl)-carbamic Acid tert-Butyl Ester] here?
**A.** < 3.8 nM

**Q.** Which Ki does the source give for `CC(C)CN([C@H](CO)CCCCNC(=O)[C@@H](N)Cc1ccc2ccccc2c1)S(=O)(=O)c1ccc(N)c(F)c1` [Example 113, (2S,5S)-2-Amino-N-{5-[(4-amino-3-fluoro-benzenesulfonyl)-isobutyl-amino]-6-hydroxy-hexyl}-3-naphthalen-2-yl-propionamide] here?
**A.** < 3.8 nM

**Q.** With `CCN[C@@H](Cc1ccc2ccccc2c1)C(=O)NCCCC[C@@H](CO)N(CC(C)C)S(=O)(=O)c1ccc(N)cc1` [Example 65, (2S,5S)-N-{5-[(4-Amino-benzenesulfonyl)-isobutyl-amino]-6-hydroxy-hexyl}-2-ethylamino-3-naphthalen-2-yl-propionamide] as the compound, how does the Ki read?
**A.** 6.2 nM

**Q.** Which Ki does the source give for `CC(C)CN([C@H](CO)CCCCNC(=O)[C@@H](NC(=O)c1cnccn1)C(c1ccccc1)c1ccccc1)S(=O)(=O)c1ccc(N)cc1` [Example 97, (1S,5S)-Pyrazine-2-carboxylic Acid (1-{5-[(4-Amino-benzenesulfonyl)-isobutyl-amino]-6-hydroxy-hexylcarbamoyl}-2,2-diphenyl-ethyl)-amide] here?
**A.** < 3.8 nM

**Q.** How did the Ki turn out when `CC(C)CN([C@H](CO)CCCCNC(=O)[C@@H](NC(=O)N(C)C)C(c1ccccc1)c1ccccc1)S(=O)(=O)c1ccc(N)cc1` [Example 94, (2S,5S)-N-{5-[(4-Amino-benzenesulfonyl)-isobutyl-amino]-6-hydroxy-hexyl}-2-(3,3-dimethyl-ureido)-3,3-diphenyl-propionamide] was run?
**A.** < 3.8 nM

**Q.** With `CC(C)CN([C@H](CO)CCCCNC(=O)[C@@H](NC(=O)c1cccc(O)c1)C(c1ccccc1)c1ccccc1)S(=O)(=O)c1ccc(N)cc1` [Example 105, (1S,5S)-N-(1-{5-[(4-Amino-benzenesulfonyl)-isobutyl-amino]-6-hydroxy-hexylcarbamoyl}-2,2-diphenyl-ethyl)-3-hydroxy-benzamide] as the compound, how does the Ki read?
**A.** < 3.8 nM

**Q.** For `CC(C)CN([C@H](CO)CCCCNC(=O)[C@H](Cc1ccc2ccccc2c1)NC(=O)N1CCCC1)S(=O)(=O)c1ccc(F)c(N)c1` [Example 115, (1S,5S)Pyrrolidine-1-carboxylic Acid (1-{5-[(3-Amino-4-fluoro-benzenesulfonyl)-isobutyl-amino]-6-hydroxy-hexylcarbamoyl}-2-naphthalen-2-yl-ethyl)-amide], which Ki is on record?
**A.** < 3.8 nM

**Q.** For `COCCOC(=O)N[C@@H](Cc1cccc2ccccc12)C(=O)NCCC[C@@H](CO)N(CC(C)C)S(=O)(=O)c1ccc(N)cc1` [Example 17, (1S,4S)-(1-{4-[(4-Amino-benzenesulfonyl)-isobutyl-amino]-5-hydroxy-pentylcarbamoyl}-2-naphthalen-1-yl-ethyl)-carbamic Acid 2-Methoxy-ethyl Ester], which Ki is on record?
**A.** 3.7 nM

**Q.** For `COc1cc(C(=O)N[C@H](C(=O)NCCCC[C@@H](CO)N(CC(C)C)S(=O)(=O)c2ccc(N)cc2)C(c2ccccc2)c2ccccc2)ccc1O` [Example 106, (1S,5S)-N-(1-{5-[(4-Amino-benzenesulfonyl)-isobutyl-amino]-6-hydroxy-hexylcarbamoyl}-2,2-diphenyl-ethyl)-4-hydroxy-3-methoxy-benzamide], which Ki is on record?
**A.** < 3.8 nM

**Q.** With `COC(=O)N[C@@H](Cc1ccc2ccccc2c1)C(=O)NCCCC[C@@H](CO)N(CC(C)C)S(=O)(=O)c1ccc(N)cc1` [Example 29, (1S,5S)-(1-{5-[(4-Amino-benzenesulfonyl)-isobutyl-amino]-6-hydroxy-hexylcarbamoyl}-2-naphthalen-2-yl-ethyl)-carbamic Acid Methyl Ester] as the compound, how does the Ki read?
**A.** 1.2 nM

**Q.** With `CC(C)CN([C@H](CO)CCCCNC(=O)[C@H](Cc1ccc2ccccc2c1)NCc1ccccn1)S(=O)(=O)c1ccc(N)cc1` [Example 70, (2S,5S)-N-{5-[(4-Amino-benzenesulfonyl)-isobutyl-amino]-6-hydroxy-hexyl}-3-naphthalen-2-yl-2-[(pyridin-2-ylmethyl)-amino]-propionamide] as the compound, how does the Ki read?
**A.** 4.9 nM

**Q.** Which Ki does the source give for `COC(=O)N[C@@H](Cc1ccc2ccccc2c1)C(=O)NCCCC[C@@H](CO)N(CC(C)C)S(=O)(=O)c1ccc(N)c(F)c1` [Example 116, (1S,5S) (1-{5-[(4-Amino-3-fluoro-benzenesulfonyl)-isobutyl-amino]-6-hydroxy-hexylcarbamoyl}-2-naphthalen-2-yl-ethyl)-carbamic Acid Methyl Ester] here?
**A.** < 3.8 nM

**Q.** For `CC(C)CN([C@H](CO)CCCCNC(=O)[C@@H](N)Cc1ccc2ccccc2c1)S(=O)(=O)c1ccc(N)cc1` [Example 49, (2S,5S)-2-Amino-N-{5-[(4-amino-benzenesulfonyl)-isobutyl-amino]-6-hydroxy-hexyl}-3-naphthalen-2-yl-propionamide], which Ki is on record?
**A.** 1.3 nM

— patent publication US6632816B1, “Aromatic derivatives as HIV aspartyl protease inhibitors” (Pharmacor Inc., priority 2002, dated 2003)
